# Target: T1, Recombinant human Chk1 (GST-Chk1) (Homo sapiens, UniProt O14757)
# T1 construct: made in house; host or cells: insect cells (baculovirus, Bac-to-Bac system)
# T1 sequence (O14757 1-476): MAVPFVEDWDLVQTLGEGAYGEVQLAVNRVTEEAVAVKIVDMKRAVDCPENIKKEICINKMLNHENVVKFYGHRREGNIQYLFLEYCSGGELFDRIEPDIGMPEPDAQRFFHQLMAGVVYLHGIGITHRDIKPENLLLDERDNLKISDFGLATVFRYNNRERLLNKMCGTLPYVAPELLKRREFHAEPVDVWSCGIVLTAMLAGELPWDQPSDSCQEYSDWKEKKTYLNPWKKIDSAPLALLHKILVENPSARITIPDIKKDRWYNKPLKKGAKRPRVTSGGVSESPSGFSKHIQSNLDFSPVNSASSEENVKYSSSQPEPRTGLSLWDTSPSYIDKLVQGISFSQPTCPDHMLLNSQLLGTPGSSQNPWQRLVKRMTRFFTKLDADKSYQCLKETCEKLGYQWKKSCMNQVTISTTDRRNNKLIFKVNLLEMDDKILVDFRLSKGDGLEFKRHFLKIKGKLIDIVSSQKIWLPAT
# Experiment: Chk1 DELFIA Kinase Assay
# Type: biochemical
# Settings: GST-Chk1 in vitro kinase assay, bound given in μM
# Experimental: Recombinant human Chk1 was expressed as a fusion protein with glutathione S-transferase at the amino-terminus (GST-Chk1) using standard baculovirus vectors and (Bac-to-Bac®) insect cell expression system purchased from GIBCO™ Invitrogen. Recombinant protein expressed in insect cells was purified using glutathione sepharose (Amersham Biotech) using standard procedures described by the manufacturer.
# Chk1 DELFIA® Kinase Assay:
# Assays (25 μL) utilized 2 nM GST-Chk1 containing 10 mM Tris, pH 7.5, 20% glycerol, 50 mM sodium chloride (NaCl), 0.01% Surfact-Amps® 20, 1 μM peptide stubstrate (Biotin-GLYRSPSMPEN-amide) (SEQ ID NO: 2), 01.% BSA, 2 mM DTT, 4% DMSO, 600 μM ATP, 10 mM MgCl2 and reacted for 50 minutes at room temperature. Reactions were terminated with 100 μL of Stop buffer containing 1% BSA, 10 mM Tris, pH 8.0, 150 mM NaCl, 100 mM EDTA. Stopped reactions (100 μL) were transferred to 96 well NeutrAvidin plates (Pierce) to capture the biotin-peptide substrate during a 30 minute room temperature incubation. Wells were washed and reacted with 100 μL PerkinElmer Wallac Assay Buffer containing 21.5 ng/ml anti-phospho-Ser216-Cdc25c rabbit polyclonal antibody from Cell Signaling Technology (Beverly, Mass.) and 292 ng/ml europium labeled anti-rabbit-IgG for 1 hour at room temperature. Wells were washed and europium released from the bound antibody by addition of Enhancement Solution (100 μL) (PerkinElmer Wallac) and detected using a Perkin Elmer Wallac Envison™ 2100 multilabel reader using standard manufacturer settings.
row,IC50 [µM],Structure (SMILES)
1,< 1,"CCn1c(=O)c2c(C)[nH]nc2c2cc(-c3ccc(CN4CCc5ccccc5C4)s3)ccc21 [Compound I-48, 8-[5-(3,4-dihydroisoquinolin-2(1H)-ylmethyl)-2-thienyl]-5-ethyl-3-methyl-2,5-dihydro-4H-pyrazolo[4,3-c]quinolin-4-one]"

# Same assay, conditions: GST-Chk1 kinase assay, bound given in nM
row,Structure (SMILES),IC50 [µM]
1,"CCN(CC)CCc1ccc(-c2ccc3c(c2)c2n[nH]c(C)c2c(=O)n3CC)s1 [Compound I-82, 8-{5-[2-(diethylamino)ethyl]-2-thienyl}-5-ethyl-3-methyl-2,5-dihydro-4H-pyrazolo[4,3-c]quinolin-4-one]",< 0.5
2,"Cc1[nH]nc2c1c(=O)n(CCF)c1ccc(-c3ccc(CN4CCCC4)s3)cc21 [Compound I-47, 5-(2-fluoroethyl)-3-methyl-8-[5-(pyrrolidin-1-ylmethyl)-2-thienyl]-2,5-dihydro-4H-pyrazolo[4,3-c]quinolin-4-one]",< 0.5
3,"CCn1c(=O)c2c(C)[nH]nc2c2cc(C#CCN3CCCC3)ccc21 [Compound I-21, 5-ethyl-3-methyl-8-(3-pyrrolidin-1-ylprop-1-yn-1-yl)-2,5-dihydro-4H-pyrazolo[4,3-c]quinolin-4-one]",< 0.5
4,"CCn1c(=O)c2c(C)[nH]nc2c2cc(C#CCN(C(C)C)C(C)C)ccc21 [Compound I-36, 8-[3-(diisopropylamino)prop-1-yn-1-yl]-5-ethyl-3-methyl-2,5-dihydro-4H-pyrazolo[4,3-c]quinolin-4-one]",< 0.5
5,"Cc1[nH]nc2c1c(=O)n(CC1CC1)c1ccc(C#CCN3CCCC3)cc21 [Compound I-6, 5-(cyclopropylmethyl)-3-methyl-8-(3-pyrrolidin-1-ylprop-1-yn-1-yl)-2,5-dihydro-4H-pyrazolo[4,3-c]quinolin-4-one]",< 0.5
6,"CCn1c(=O)c2c(C)[nH]nc2c2cc(-c3ccc(CN4CCc5ccccc5C4)s3)ccc21 [Compound I-48, 8-[5-(3,4-dihydroisoquinolin-2(1H)-ylmethyl)-2-thienyl]-5-ethyl-3-methyl-2,5-dihydro-4H-pyrazolo[4,3-c]quinolin-4-one]",> 0.5
7,"CCn1c(=O)c2c(C)[nH]nc2c2cc(/C=C/CN(C)Cc3ccccc3)ccc21 [Compound I-45, 8-{(1E)-3-[benzyl(methyl)amino]prop-1-en-1-yl}-5-ethyl-3-methyl-2,5-dihydro-4H-pyrazolo[4,3-c]quinolin-4-one]",< 0.5
8,"CCn1c(=O)c2c(C)[nH]nc2c2cc(C#CCN(C(C)C)C(C)(C)C)ccc21 [Compound I-38, 8-{3-[tert-butyl(isopropyl)amino]prop-1-yn-1-yl}-5-ethyl-3-methyl-2,5-dihydro-4H-pyrazolo[4,3-c]quinolin-4-one]",< 0.5
9,"Cc1[nH]nc2c1c(=O)n(CCF)c1ccc(C#CCN3CCCC3)cc21 [Compound I-10, 5-(2-fluoroethyl)-3-methyl-8-(3-pyrrolidin-1-ylprop-1-yn-1-yl)-2,5-dihydro-4H-pyrazolo[4,3-c]quinolin-4-one]",< 0.5
10,"CCn1c(=O)c2c(CCOC)[nH]nc2c2cc(C#CCN3CCCC3)ccc21 [Compound I-14, 5-ethyl-3-(2-methoxyethyl)-8-(3-pyrrolidin-1-ylprop-1-yn-1-yl)-2,5-dihydro-4H-pyrazolo[4,3-c]quinolin-4-one]",< 0.5

# Next, values leading:
row,IC50 [µM],Structure (SMILES)
1,< 0.5,"CCn1c(=O)c2c(C)[nH]nc2c2cc(C#CCN3[C@H](C)CCC[C@@H]3C)ccc21 [Compound I-37, 8-{3-[(2R,6S)-2,6-dimethylpiperidin-1-yl]prop-1-yn-1-yl}-5-ethyl-3-methyl-2,5-dihydro-4H-pyrazolo[4,3-c]quinolin-4-one]"
2,< 0.5,"Cc1[nH]nc2c1c(=O)n(C)c1ccc(C#CCN3CCCC3)cc21 [Compound I-12, 3,5-dimethyl-8-(3-pyrrolidin-1-ylprop-1-yn-1-yl)-2,5-dihydro-4H-pyrazolo[4,3-c]quinolin-4-one]"
3,< 0.5,"CCn1c(=O)c2c(C)[nH]nc2c2cc(C#CCN(C)C)ccc21 [Compound I-11, 8-[3-(dimethylamino)prop-1-yn-1-yl]-5-ethyl-3-methyl-2,5-dihydro-4H-pyrazolo[4,3-c]quinolin-4-one]"
4,< 0.5,"CCn1c(=O)c2c(C)[nH]nc2c2cc(C#CC(C)(C)NC(C)(C)C)ccc21 [Compound I-39, 8-[3-(tert-butylamino)-3-methylbut-1-yn-1-yl]-5-ethyl-3-methyl-2,5-dihydro-4H-pyrazolo[4,3-c]quinolin-4-one]"
5,< 0.5,"CCn1c(=O)c2c(C)[nH]nc2c2cc(-c3ccc(CN4CC[C@H](O)C4)s3)ccc21 [Compound I-83, 5-ethyl-8-(5-{[(3S)-3-hydroxypyrrolidin-1-yl]methyl}-2-thienyl)-3-methyl-2,5-dihydro-4H-pyrazolo[4,3-c]quinolin-4-one]"
6,< 0.5,"CCn1c(=O)c2c(C)[nH]nc2c2cc(/C=C/CN3[C@@H](C)CC[C@@H]3C)ccc21 (racemic) [Compound I-40, 8-{(1E)-3-[(2S,5S)-2,5-dimethylpyrrolidin-1-yl]prop-1-en-1-yl}-5-ethyl-3-methyl-2,5-dihydro-4H-pyrazolo[4,3-c]quinolin-4-one]"
7,< 0.5,"Cc1[nH]nc2c1c(=O)n(C)c1ccc(C#CCN)cc21 [Compound I-23, 8-(3-aminoprop-1-yn-1-yl)-3,5-dimethyl-2,5-dihydro-4H-pyrazolo[4,3-c]quinolin-4-one]"
8,< 0.5,"Cc1[nH]nc2c1c(=O)[nH]c1ccc(C#CCN3CCCC3)cc12 [Compound I-13, 3-methyl-8-(3-pyrrolidin-1-ylprop-1-yn-1-yl)-2,5-dihydro-4H-pyrazolo[4,3-c]quinolin-4-one]"
9,< 0.5,"CCn1c(=O)c2c(C)[nH]nc2c2cc(-c3ccc(CN(C)C)s3)ccc21 [Compound I-50, 8-{5-[(dimethylamino)methyl]-2-thienyl}-5-ethyl-3-methyl-2,5-dihydro-4H-pyrazolo[4,3-c]quinolin-4-one]"

# From US20060035920A1, “Chk-1 inhibitors” (Millennium Pharmaceuticals, Inc., priority 2004, published 2006)
